Source: PubChem BioAssay (NCI)
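Step 1: Grow cells in 96-well plates. Step 2: Expose to compound for 48 hours at 5 concentrations. Step 3: Interpolate endpoints linearly; if unreached, use highest concentration. TGI: concentration producing complete growth inhibition.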

How the values were obtained:
Experiment in all cases: NCI anticancer screen, dose series, 48 h
[1] = tested on: SK-OV-3 ovarian
[2] = tested on: PC-3 prostate
[3] = tested on: ACHN renal
[4] = tested on: SN12C renal
[5] = tested on: NCI-H460 lung
[6] = tested on: A549 NSCLC
[7] = tested on: NCI-H522 lung
[8] = tested on: SW-620 colon
[9] = tested on: UO-31 renal
[10] = tested on: HOP-92 NSCLC
[11] = tested on: DU-145 prostate
[12] = tested on: SR leukemia
[13] = tested on: HOP-62 NSCLC
[14] = tested on: RPMI-8226 leukemia
[15] = tested on: HL-60(TB) leukemia
[16] = tested on: MOLT-4 leukemia
[17] = tested on: SK-MEL-28 melanoma
[18] = tested on: SNB-75 CNS

| Compound | TGI [1] | TGI [2] | TGI [3] | TGI [4] | TGI [5] | TGI [6] | TGI [7] | TGI [8] | TGI [9] | TGI [10] | TGI [11] | TGI [12] | TGI [13] | TGI [14] | TGI [15] | TGI [16] | TGI [17] | TGI [18] |
| --- | --- | --- | --- | --- | --- | --- | --- | --- | --- | --- | --- | --- | --- | --- | --- | --- | --- | --- |
| COc1cccc(Nc2nc(-c3cccs3)nc3ccc(Br)cc23)c1 | > 100 µM | > 100 µM | > 100 µM | > 100 µM | > 100 µM | > 100 µM | > 100 µM | > 100 µM | > 100 µM | > 100 µM | > 100 µM | > 100 µM | 57.9 µM | > 100 µM | > 100 µM | – | – | – |
| CCOC(=O)c1cc(C2CCN(CC(C)CC)C2=S)c(-c2cc(C)no2)[nH]1 (configuration not stated) | > 100 µM | > 100 µM | – | > 100 µM | > 100 µM | > 100 µM | – | > 100 µM | 82.4 µM | > 100 µM | > 100 µM | > 100 µM | > 100 µM | > 100 µM | > 100 µM | > 100 µM | > 100 µM | > 100 µM |
| C/C(=N\Nc1ccccc1Br)c1cccc(/C(C)=N/Nc2ccccc2Br)n1 | – | > 100 µM | > 100 µM | > 100 µM | > 100 µM | > 100 µM | – | > 100 µM | > 100 µM | > 100 µM | > 100 µM | > 100 µM | > 100 µM | > 100 µM | > 100 µM | > 100 µM | > 100 µM | 36.8 µM |
| O=C1CCCCC1=C(I)I | 56.8 µM | 30.9 µM | 31.7 µM | 55.6 µM | 44.1 µM | > 100 µM | – | 31.2 µM | 30.5 µM | 29 µM | 34.1 µM | > 100 µM | 57.5 µM | 53.4 µM | 26.2 µM | 58.3 µM | 31.8 µM | 47.1 µM |
| C=CC(C)(C)C(=C)C(=O)N(C)c1ccccc1I | > 100 µM | > 100 µM | > 100 µM | > 100 µM | > 100 µM | > 100 µM | > 100 µM | > 100 µM | > 100 µM | > 100 µM | > 100 µM | > 100 µM | > 100 µM | > 100 µM | – | > 100 µM | > 100 µM | > 100 µM |
| Cc1nn(C(=O)c2ccncc2)c2c1C(c1ccc(Cl)cc1)SC(N)=N2 (configuration not stated) | – | > 10 µM | > 10 µM | > 10 µM | > 10 µM | > 10 µM | – | > 10 µM | – | > 10 µM | > 10 µM | > 10 µM | > 10 µM | > 10 µM | > 10 µM | > 10 µM | > 10 µM | > 10 µM |
| C=CCOc1ccc(/C(N=Nc2ccccc2)=N/NC(=O)c2ccccc2)cc1OC | – | > 100 µM | > 100 µM | > 100 µM | > 100 µM | > 100 µM | > 100 µM | > 100 µM | > 100 µM | > 100 µM | > 100 µM | > 100 µM | > 100 µM | – | > 100 µM | > 100 µM | > 100 µM | > 100 µM |
| COC(=O)C12OC(C)(C(CC(=O)OC(C)(C)C)C1=O)C1C(=O)N(c3ccccc3)C(=O)C12 (configuration not stated) | > 100 µM | > 100 µM | > 100 µM | > 100 µM | > 100 µM | > 100 µM | > 100 µM | > 100 µM | > 100 µM | > 100 µM | > 100 µM | > 100 µM | > 100 µM | > 100 µM | – | > 100 µM | > 100 µM | > 100 µM |
| O=C(Cn1cc(F)c(=O)[nH]c1=O)C12CC3CC(CC(C3)C1)C2 | > 100 µM | > 100 µM | > 100 µM | > 100 µM | > 100 µM | > 100 µM | > 100 µM | > 100 µM | > 100 µM | – | > 100 µM | > 100 µM | > 100 µM | > 100 µM | > 100 µM | > 100 µM | > 100 µM | > 100 µM |
| CC(O)(/C=C/c1ccccc1)P(=O)(O)c1ccccc1 (configuration not stated) | > 100 µM | > 100 µM | > 100 µM | > 100 µM | > 100 µM | > 100 µM | > 100 µM | > 100 µM | – | > 100 µM | > 100 µM | > 100 µM | > 100 µM | – | > 100 µM | – | > 100 µM | > 100 µM |
| O=C(O)CCC(NC(=O)c1ccc(Nc2cnc3ccc(C(F)(F)F)cc3n2)cc1)C(=O)O (configuration not stated) | > 100 µM | > 100 µM | > 100 µM | > 100 µM | > 100 µM | > 100 µM | – | > 100 µM | > 100 µM | > 100 µM | > 100 µM | > 100 µM | > 100 µM | > 100 µM | > 100 µM | > 100 µM | > 100 µM | > 100 µM |
| N#Cc1c(-c2ccc(Cl)cc2)c(C#N)c(=O)n(NS(=O)(=O)c2ccccc2)c1S | > 100 µM | > 100 µM | 85.3 µM | 78 µM | 46 µM | > 100 µM | 47.4 µM | 69.9 µM | 45.3 µM | > 100 µM | > 100 µM | 56.5 µM | – | 75.6 µM | 60 µM | > 100 µM | – | > 100 µM |
| COc1ccc(-c2cc(-c3ccc(Nc4ccnc5cc(Cl)ccc45)cc3)nc(N)c2C#N)cc1 | > 100 µM | > 100 µM | > 100 µM | – | > 100 µM | > 100 µM | > 100 µM | > 100 µM | 70.1 µM | > 100 µM | > 100 µM | > 100 µM | > 100 µM | > 100 µM | > 100 µM | > 100 µM | > 100 µM | > 100 µM |
| COc1ccc(C2C3CCc4ccccc4C3=NN2S(=O)(=O)c2ccc(Cl)cc2)cc1 (configuration not stated) | 16 µM | > 100 µM | 69.2 µM | > 100 µM | > 100 µM | > 100 µM | 37.6 µM | > 100 µM | > 100 µM | > 100 µM | > 100 µM | 25.4 µM | > 100 µM | 51.3 µM | 74.9 µM | > 100 µM | – | – |
